Assay results from patent US20260193271A1, “PAN-KRAS INHIBITOR COMPOUND” (ADLAI NORTYE BIOPHARMA CO., LTD., priority 2022, published 2026).

Experiments:
[1] = system: AsPC-1 (G12D); assay: In vitro cell proliferation inhibition test (CellTiter-Glo), AsPC-1; assay type: cell-based; conditions: KRAS (p.G12D), 72 h co-incubation
Method in brief: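 Cells were seeded at 1000-5000/well by doubling time and cultured overnight at 37 °C, 5% CO2. They were then exposed for 72 h to 10-point, 3-fold compound dilutions (final top 10 μM), and viability was read by CellTiter-Glo luminescence. IC50 came from normalized signals fitted by four-parameter regression.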

[2] = system: SW480 (G12V); assay: In vitro cell proliferation inhibition test (CellTiter-Glo), SW480; assay type: cell-based; conditions: SW480 colon cell line, KRAS (p.G12V), 72 h co-incubation
From the text: Test Example 1: In Vitro Cell Proliferation Inhibition Test
Due to the diversity of RAS mutations and in order to evaluate the activity of compounds in different RAS mutation cell lines, we selected KRAS^WT, KRAS^G12C, KRAS^G12D, KRAS^G12V and BRAF mutation cell lines (see the table below) for in vitro activity evaluation and screening of compounds.
Protocol: CellTiter-Glo® Cell Luminescent Viability Assay (Promega)
According to the doubling time of different cell lines, different numbers of cells (1000-5000 cells/well) were seeded in 96-well plates containing 180 μl of corresponding culture medium and cultured overnight in a cell culture incubator at 37° C. with 5% CO2. On the second day, the test compound was pre-diluted 3-fold with culture medium, with the highest concentration being 100 μM, for a total of 10 concentration gradients; then 20 μl of culture medium containing different concentrations of the compound was added to the cells in the 96-well plate to ensure that the final concentration of the compound was up to 10 μM, with 10 concentration gradients of 3-fold dilution. After the cells and compounds were co-incubated for 72 h, the 96-well plate was removed from the incubator and equilibrated at room temperature for 30 min. Then, 25 μl of CellTiter-Glo® Reagent was added to each well and mixed thoroughly. The mixture was incubated at room temperature for 10 min, and then 100 μl of the sample was transferred to a white 96-well plate (OptiPlate™-96, PerkinElmer). The […] signal value was read using a multi-function microplate reader (SpectraMax® i3x, Molecular devices). The signal values were then standardized, and the curve was fitted using a four-parameter regression equation to calculate the half maximal inhibitory concentration (IC50) of the compound on the cell line.

[3] = Homo sapiens, ASPC1, AsPC-1 pancreas cell line

Compound | IC50 ([1]; AsPC-1 pancreas cell line) | IC50 [2] | IC50 [1, 3] | IC50 ([2]; Homo sapiens)
CCn1c(-c2cc(-c3cc(CN4CCOCC4)on3)cnc2C(C)OC)c2c3cc(ccc31)-c1csc(n1)CC(NC(=O)C1CC1C)C(=O)N1CCCC(N1)C(=O)OCC(C)(C)C2 [Compound 22′, (1S,2S)-N-((6^3S,4S,Z)-1^1-ethyl-1^2-(2-((S)-1-methoxyethyl)-5-(5-(morpholinomethyl)isoxazol-3-yl)pyridin-3-yl)-10,10-dimethyl-5,7-dioxo-6^1,6^2,6^3,6^4,6^5,6^6-hexahydro-1^1H-8-oxa-2(4,2)-thiazola-1(5,3)-indola-6(1,3)-pyridazinacycloundecaphane-4-yl)-2-methylcyclopropane-1-carboxamide] | > 10000 nM | 161 nM | – | –
CCn1c(-c2cc(-c3cnn(C4CCN(C)CC4)c3)cnc2[C@H](C)OC)c2c3cc(ccc31)-c1csc(n1)C[C@H](NC(=O)[C@H]1[C@H](C)[C@@H]1C)C(=O)N1CCC[C@H](N1)C(=O)OCC(C)(C)C2 (atropisomer, axis not shown) [Compound 18, (1r,2R,3S)-N-((6^3S,4S,Z)-1^1-ethyl-1^2-(2-((S)-1-methoxyethyl)-5-(1-(1-methylpiperidin-4-yl)-1H-pyrazol-4-yl)pyridin-3-yl)-10,10-dimethyl-5,7-dioxo-6^1,6^2,6^3,6^4,6^5,6^6-hexahydro-1^1H-8-oxa-2(4,2)-thiazola-1(5,3)-indola-6(1,3)-pyridazinacycloundecaphane-4-yl)-2,3-dimethylcyclopropane-1-carboxamide] | – | – | 0.45 nM | 1.4 nM
CCn1c(-c2cc(-c3ncc(CN4CCS(=O)(=O)CC4)cn3)cnc2[C@H](C)OC)c2c3cc(ccc31)-c1csc(n1)C[C@H](NC(=O)[C@H]1C[C@@H]1C)C(=O)N1CCC[C@H](N1)C(=O)OCC(C)(C)C2 (atropisomer, axis not shown) [Compound 51, (1S,2S)-N-((6^3S,4S,Z)-1^2-(5-(5-((1,1-dioxidothiomorpholino)methyl)pyrimidin-2-yl)-2-((S)-1-methoxyethyl)pyridin-3-yl)-1^1-ethyl-10,10-dimethyl-5,7-dioxo-6^1,6^2,6^3,6^4,6^5,6^6-hexahydro-1^1H-8-oxa-2(4,2)-thiazola-1(5,3)-indola-6(1,3)-pyridazinacycloundecaphane-4-yl)-2-methylcyclopropane-1-carboxamide] | – | – | 0.9 nM | 1.2 nM
CCn1c(-c2cc(-c3cnc4c(c3)CN(C)C4)cnc2[C@H](C)OC)c2c3cc(ccc31)-c1csc(n1)C[C@H](NC(=O)[C@H]1C[C@@H]1C)C(=O)N1CCC[C@H](N1)C(=O)OCC(C)(C)C2 (atropisomer, axis not shown) [Compound 45, (1S,2S)-N-((6^3S,4S,Z)-1^1-ethyl-1^2-(2-((S)-1-methoxyethyl)-5-(6-methyl-6,7-dihydro-5H-pyrrolo[3,4-b]pyridin-3-yl)pyridin-3-yl)-10,10-dimethyl-5,7-dioxo-6^1,6^2,6^3,6^4,6^5,6^6-hexahydro-1^1H-8-oxa-2(4,2)-thiazola-1(5,3)-indola-6(1,3)-pyridazinacycloundecaphane-4-yl)-2-methylcyclopropane-1-carboxamide] | – | – | 5.3 nM | 6.2 nM
CCn1c(-c2cc(-c3ccc(CN4CCN(C)CC4)cn3)cnc2[C@H](C)OC)c2c3cc(ccc31)-c1csc(n1)C[C@H](NC(=O)[C@H]1C[C@@H]1C)C(=O)N1CCC[C@H](N1)C(=O)OCC(C)(C)C2 (atropisomer, axis not shown) [Compound 41, (1S,2S)-N-((6^3S,4S,Z)-1^1-ethyl-1^2-(6′-((S)-1-methoxyethyl)-5-((4-methylpiperazin-1-yl)methyl)-[2,3′-bipyridin]-5′-yl)-10,10-dimethyl-5,7-dioxo-6^1,6^2,6^3,6^4,6^5,6^6-hexahydro-1^1H-8-oxa-2(4,2)-thiazola-1(5,3)-indola-6(1,3)-pyridazinacycloundecaphane-4-yl)-2-methylcyclopropane-1-carboxamide] | – | – | 2.6 nM | 3.7 nM
CCn1c(-c2cc(-c3cc(C4CCCN4C)on3)cnc2C(C)OC)c2c3cc(ccc31)-c1csc(n1)CC(NC(=O)C1CC1C)C(=O)N1CCCC(N1)C(=O)OCC(C)(C)C2 [Compound 24′, (1S,2S)-N-((6^3S,4S,Z)-1^1-ethyl-1^2-(2-((S)-1-methoxyethyl)-5-(5-((R)-1-methylpyrrolidin-2-yl)isoxazol-3-yl)pyridin-3-yl)-10,10-dimethyl-5,7-dioxo-6^1,6^2,6^3,6^4,6^5,6^6-hexahydro-1^1H-8-oxa-2(4,2)-thiazola-1(5,3)-indola-6(1,3)-pyridazinacycloundecaphane-4-yl)-2-methylcyclopropane-1-carboxamide] | > 10000 nM | 3610 nM | – | –
CCn1c(-c2cc(-c3cccc(CN4CCOCC4)c3)cnc2[C@H](C)OC)c2c3cc(ccc31)-c1csc(n1)C[C@H](NC(=O)[C@H]1C[C@@H]1C)C(=O)N1CCC[C@H](N1)C(=O)OCC(C)(C)C2 (atropisomer, axis not shown) [Compound 9, (1S,2S)-N-((6^3S,4S,Z)-1^1-ethyl-1^2-(2-((S)-1-methoxyethyl)-5-(3-(morpholinomethyl)phenyl)pyridin-3-yl)-10,10-dimethyl-5,7-dioxo-6^1,6^2,6^3,6^4,6^5,6^6-hexahydro-1^1H-8-oxa-2(4,2)-thiazola-1(5,3)-indola-6(1,3)-pyridazinacycloundecaphane-4-yl)-2-methylcyclopropane-1-carboxamide] | – | – | 3.5 nM | 18 nM
CCn1c(-c2cc(-c3ccc4c(c3)CN(C)CC4)cnc2[C@H](C)OC)c2c3cc(ccc31)-c1csc(n1)C[C@H](NC(=O)[C@H]1C[C@@H]1C)C(=O)N1CCC[C@H](N1)C(=O)OCC(C)(C)C2 (atropisomer, axis not shown) [Compound 10, (1S,2S)-N-((6^3S,4S,Z)-1^1-ethyl-1^2-(2-((S)-1-methoxyethyl)-5-(2-methyl-1,2,3,4-tetrahydroisoquinolin-7-yl)pyridin-3-yl)-10,10-dimethyl-5,7-dioxo-6^1,6^2,6^3,6^4,6^5,6^6-hexahydro-1^1H-8-oxa-2(4,2)-thiazola-1(5,3)-indola-6(1,3)-pyridazinacycloundecaphane-4-yl)-2-methylcyclopropane-1-carboxamide] | – | – | 18 nM | 0.5 nM
CCn1c(-c2cc(-c3cnc(OC4CCN(C)CC4)nc3)cnc2[C@H](C)OC)c2c3cc(ccc31)-c1csc(n1)C[C@H](NC(=O)[C@H]1C[C@@H]1C)C(=O)N1CCC[C@H](N1)C(=O)OCC(C)(C)C2 (atropisomer, axis not shown) [Compound 60, (1S,2S)-N-((6^3S,4S,Z)-1^1-ethyl-1^2-(2-((S)-1-methoxyethyl)-5-(2-((1-methylpiperidin-4-yl)oxy)pyrimidin-5-yl)pyridin-3-yl)-10,10-dimethyl-5,7-dioxo-6^1,6^2,6^3,6^4,6^5,6^6-hexahydro-1^1H-8-oxa-2(4,2)-thiazola-1(5,3)-indola-6(1,3)-pyridazinacycloundecaphane-4-yl)-2-methylcyclopropane-1-carboxamide] | – | – | 1.6 nM | 12 nM
CCn1c(-c2cc(-c3cc([C@@H]4COCCN4C)on3)cnc2[C@H](C)OC)c2c3cc(ccc31)-c1csc(n1)C[C@H](NC(=O)[C@H]1[C@H](C)[C@@H]1C)C(=O)N1CCC[C@H](N1)C(=O)OCC(C)(C)C2 (atropisomer, axis not shown) [Compound 32, (1r,2R,3S)-N-((6^3S,4S,Z)-1^1-ethyl-1^2-(2-((S)-1-methoxyethyl)-5-(5-((S)-4-methylmorpholin-3-yl)isoxazol-3-yl)pyridin-3-yl)-10,10-dimethyl-5,7-dioxo-6^1,6^2,6^3,6^4,6^5,6^6-hexahydro-1^1H-8-oxa-2(4,2)-thiazola-1(5,3)-indola-6(1,3)-pyridazinacycloundecaphane-4-yl)-2,3-dimethylcyclopropane-1-carboxamide] | – | – | 1.3 nM | 1.6 nM
(1r,2R,3S)-N-((6^3S,4S,Z)-1^1-ethyl-1^2-(2-((S)-1-methoxyethyl)-5-(1-(1-methylazetidin-3-yl)-1H-pyrazol-4-yl)pyridin-3-yl)-10,10-dimethyl-5,7-dioxo-6^1,6^2,6^3,6^4,6^5,6^6-hexahydro-1^1H-8-oxa-2(4,2)-thiazola-1(5,3)-indola-6(1,3)-pyridazinacycloundecaphane-4-yl)-2,3-dimethylcyclopropane-1-carboxamide [Compound 17′] | 697 nM | 85 nM | – | –
